In US11225474B2, “Crystalline salt forms of 3-(1,2,4-triazolo[4,3-a]pyridine-3-ylethynyl)-4-methyl-N-(4-((4-methylpiperazin-1-yl)methyl)-3-trifluoromethylphenyl)benzamide for medical application” (priority 2016, dated 2022):
Values after ≈ are worked out from the molar mass of the structure shown.

Columns and labels:
[1] = Acute toxicity, oral route, mice; details: male, CD-1, mouse, in vivo, po, LD50, oral, male CD-1 mice; dose of the substance administered
Description: (§1) For each drug dose study a group of six animals was used. The study included control groups with the same animal headcount, which received equivalent solvent doses of a 0.5% water solution of methylcellulose. The follow-up period was 28 days. Lab mouse survivability analysis allowed carrying out Bliss analysis and determining the lethal doses of the studied drugs.

CD-1 line mice males = test: Acute toxicity, oral route, mice
Description: as §1

in vivo = test: in vivo; design: species or system C57BL/6 line mice; details: free base 50 mg/kg, single oral, C57BL/6 mice, plasma
Method: FIGS. 52A-52B. […] The mean values were determined for each time point on the basis of the individual data obtained from three animals.
The results of the study are given in FIG. 52 and in Tables 14 and 15.

[2] = Dissolution kinetics (USP Apparatus 1 Basket Method); type: physicochemical
Method: During further studies of the polymorphous modifications of the methanesulfonic acid salt of 3-(1,2,4-triazolo[4,3-a]pyridine-3-ylethynyl)-4-methyl-N-(4-((4-methylpiperazine-1-yl)methyl)-3-trifluoromethylphenyl)benzamide, the kinetics of dissolution of the free base and the two methanesulfonic acid salt form polymorphous modifications was studied. Dissolution kinetics studies were performed using USP Apparatus 1 Basket Method (USP40, General Chapter <711>. Dissolution), dissolution media volume—700 mL, temperature—37±1° C. paddle stirrers' rotation rate—100 rpm. The test sample dissolution rate was calculated as an average of six repeats. Distilled water was used as the dissolution medium for the polymorphous modifications of 3-(1,2,4-triazolo[4,3-a]pyridine-3-ylethynyl)-4-methyl-N-(4-((4-methylpiperazine-1-yl)methyl)-3-trifluoromethylphenyl)benzamide methanesulfonic acid salt and, and a solution of 12.2 mL of methanesulfonic acid in 500 mL of water was used as the dissolution medium for the free base. Test portions containing 100 mg of 3-(1,2,4-triazolo[4,3-a]pyridine-3-ylethynyl)-4-methyl-N-(4-((4-methylpiperazine-1-yl)methyl)-3-trifluoromethylphenyl)benzamide or 118 mg of 3-(1,2,4-triazolo[4,3-a]pyridine-3-ylethynyl)-4-methyl-N-(4-((4-methylpiperazine-1-yl)methyl)-3-trifluoromethylphenyl)benzamide methanesulfonic acid salt (100 mg calculated as free base) were used for dissolution. In 780 minutes (13 hours) after the beginning of the test, pH of prepared solutions was measured.

[3] = Solubility of the free base in various solvents; type: physicochemical; details: thermodynamic from solid
Method: At the first stage the initial base was tested for solubility in selected organic solvents. The maximum selected solvent volume used in this test was 1.25 mL per 1 mg of base. Low toxicity (Class 3), low-boiling (Tboiling<100° C.), polar, solvents. in which the base was soluble at no less than 10 mg/mL were selected for further studies.

[4] = Hygroscopicity by gravimetric moisture absorption; type: physicochemical; details: relative air humidity of 90%
Description: Samples were also studied using the following methods: polarization microscopy (Leica DMRB Polarized Microscope, resolution of 1600×1200)—to confirm crystallinity, ion chromatography—to confirm anion and cation stoichiometric proportion, differential scanning calorimetry (DSC) and thermogravimetric analysis (TGA)—to confirm composition and study of temperature stability of samples; ^1H NMR (500 MHz Bruker AVANCE 500.13 MHz, solvent DMSO-d6)—to confirm structure, assess purity and content of organic solvents; gravimetric moisture absorption—to assess hygroscopicity. DSC was carried out using Mettler 822e DSC apparatus. The measuring system was calibrated according to ISO 11357-1 standard based on standard substances phase changes (C6H12; Hg; benzoic acid; Ga; KNO3; In; Sn; Bi; CsCl; purity grade 99.99%). Temperature calibration regular error (determined based on In) is 0.1°. Samples were tested in standard aluminum cells in the artificial air flow at a temperature range of 30-300° C. with heating speed of 10°/min. TG measurements were taken using Mettler 851e SDTA/TGA TG analyzer. The apparatus was calibrated using standard substances melting points (Ag; Al; Bi; In; Sn; purity grade of 99.99%). Weighing error is NMT 0.1% (determined using CaC2O4·2H2O standard). The test was carried out in a standard open aluminum container in the artificial air flow at a temperature range of 30-150° C. with heating speed of 10°/min. To avoid dehydration, the material was not exposed to mechanical treatment before taking measurements.

[5] = Stability, 7 days at T = 60° C.; type: physicochemical
[6] = system: Sca1+ marrow cells, expressing p185-T315I^BCR/ABL; test: BCR/ABL-induced chronic myelogenous leukemia model; type: in vivo, C57BL/6N line mice; details: oral, 50 mg/kg free base; control 55.0 ± 6.3
Method: To assess the efficacy of the free base and methanesulfonic acid salt of 3-(1,2,4-triazolo[4,3-a]pyridine-3-ylethynyl)-4-methyl-N-(4-((4-methylpiperazine-1-yl)methyl)-3-trifluoromethylphenyl)benzamide for treating chronic myelogenous leukemia (CML) studies of the compounds' activity on the BCR/ABL-induced CML-like disease in mice were conducted. In the study C57BL/6N line mice were used. […] The efficacy of therapy with 3-(1,2,4-triazolo[4,3-a]pyridine-3-ylethynyl)-4-methyl-N-(4-((4-methylpiperazine-1-yl)methyl)-3-trifluoromethylphenyl)benzamide administered orally as a free base and methanesulfonic acid salt was studied.

pKa of the base = type: physicochemical
[7] = Stability of polymorph modifications, suspending in acetone for 6 days; type: physicochemical
Method: Crystallinity of all samples obtained was studied using the method of X-ray powder diffraction (to study the crystallinity structure). Diffraction patterns were obtained at a temperature of 25° C. […] Survey step 0.02° 2θ, angle range 3-45° 2θ. Diffraction patterns obtained were studied in detail using X'Pert HighScore Plus software package.

physchem [8] = details: deionized water, thermodynamic from solid, Equilibrium solubility, HPLC analysis
physchem [9] = type: physicochemical; details: deionized water, water; read-out: Apparent solubility
[10] = oral, male CD-1 mice, dose of the substance administered

In the case of `Cc1ccc(C(=O)Nc2ccc(CN3CCN(C)CC3)c(C(F)(F)F)c2)cc1C#Cc1nnc2ccccn12` [free base, 3-(1,2,4-triazolo[4,3-a]pyridine-3-ylethynyl)-4-methyl-N-(4-((4-methylpiperazin-1-yl)methyl)-3-trifluoromethylphenyl)benzamide], the LD50 at 28 days [1] is reported as 677 ± 55 mg/kg, the “Dose without observable effects” value (CD-1 line mice males; male, CD-1, mouse, in vivo, po, 28 days) is reported as 160 mg/kg and the “signs of animal intoxication” value (CD-1 line mice males; mouse, in vivo, po) is reported as “dyspnea, hypodynamia, tumbled fur, diarrhea, bloating, in some animals—focal alopecia”. For the same compound, the LD10 (CD-1 line mice males; [10]) was 504 mg/kg, the LD90 (CD-1 line mice males; [10]) was 850 mg/kg and the AUC0-24/24 (in vivo) was 452 ng/mL. For the same compound, the AUC(0-inf) (in vivo; mouse) was 10900 ng·h/mL, the half-life (in vivo; mouse) was 2.4 h and the AUC(0-t) (in vivo; mouse, read-out: AUC0-24) was 10900 ng·h/mL. The Cmax (in vivo; mouse, read-out: Cmax) was 1490 ng/mL, the Tmax (in vivo; mouse, read-out: Tmax) was 2 h and the “pH of prepared solution” value ([2]; 780 minutes after beginning, medium 12.2 mL methanesulfonic acid in 500 mL water) was 4.02. The share dissolved ([2]; solution containing 12.2 mL methanesulfonic acid, 780 minutes (13 hours)) was “less than 90%”, the solubility ([3]; organic solvent or mixture, 2-methyltetrahydrofuran, 3.7 mg in 0.6 mL, 50 °C) was > 800 µg/mL and the solubility ([3]; organic solvent or mixture, Acetone, 3.4 mg in 0.3 mL, 50 °C) was > 800 µg/mL. For the same compound, the solubility ([3]; organic solvent or mixture, Acetonitrile, 3.5 mg in 4.0 mL, 50 °C) was < 800 µg/mL, the solubility ([3]; organic solvent or mixture, Cyclohexane, 4.3 mg in 4.0 mL, 50 °C) was < 800 µg/mL and the solubility ([3]; organic solvent or mixture, Dichloromethane, 3.7 mg in 0.4 mL, 50 °C) was > 800 µg/mL. For the same compound, the solubility ([3]; organic solvent or mixture, Dimethyl sulfoxide, 3.8 mg in 0.1 mL, RT) was > 800 µg/mL, the solubility ([3]; organic solvent or mixture, Dimethylformamide, 4.7 mg in 0.1 mL, RT) was > 800 µg/mL and the solubility ([3]; organic solvent or mixture, Ethanol, 4.7 mg in 0.3 mL, 50 °C) was > 800 µg/mL. For the same compound, the solubility ([3]; organic solvent or mixture, Ethyl acetate, 3.9 mg in 1.3 mL, 50 °C) was > 800 µg/mL, the solubility ([3]; organic solvent or mixture, Heptane, 3.3 mg in 4.0 mL, 50 °C) was < 800 µg/mL and the solubility ([3]; organic solvent or mixture, Isopropanol, 3.6 mg in 0.4 mL, 50 °C) was > 800 µg/mL. For the same compound, the solubility ([3]; organic solvent or mixture, Isopropyl acetate, 4.0 mg in 4.0 mL, 50 °C) was < 800 µg/mL, the solubility ([3]; organic solvent or mixture, Methanol, 4.0 mg in 0.1 mL, 50 °C) was > 800 µg/mL and the solubility ([3]; organic solvent or mixture, Methyl ethyl ketone, 4.8 mg in 0.4 mL, 50 °C) was > 800 µg/mL. The solubility ([3]; organic solvent or mixture, Methyl isobutyl ketone, 4.1 mg in 0.6 mL, 50 °C) was > 800 µg/mL, the solubility ([3]; organic solvent or mixture, Methyl tert-butyl ether, 4.7 mg in 4.0 mL, 50 °C) was < 800 µg/mL and the solubility ([3]; organic solvent or mixture, N-methylpyrrolidone, 3.7 mg in 0.1 mL, RT) was > 800 µg/mL. For the same compound, the solubility ([3]; organic solvent or mixture, Tetrahydrofuran, 3.6 mg in 0.1 mL, 50 °C) was > 800 µg/mL, the solubility ([3]; organic solvent or mixture, Toluene, 3.4 mg in 4.0 mL, 50 °C) was < 800 µg/mL and the solubility ([3]; organic solvent or mixture, n-Butanol, 3.6 mg in 0.2 mL, 50 °C) was > 800 µg/mL. The solubility ([3]; Water, 4.6 mg in 4.0 mL, 50 °C) was < 800 µg/mL, the “water absorbed (hygroscopicity)” value [4] was “less than three mass percent of water” and the pH (equilibrium solubility test in water) was 5.3. For the same compound, the “Crystallinity in 24 h” value (solid in water, equilibrium solubility test) was “Cryst”, the “Crystallinity in 7 days” value ([5]; 7 days at T = 60° C.) was “Form I” and the “Relative peak area, in 7 days” value ([5]; 7 days at T = 60° C.) was 99.7%. The “Relative peak area, initial” value ([5]; before storage) was 99.7%, the content of impurities ([5]; kept seven days at 60° C.) was “remains constant” and the Average life [6] was 93.0 ± 6.1 days. The pKa (pKa of the base) was ~6.4, the “crystalline structure after suspending in acetone” value ([7]; acetone, 6 days) was “changes” and the “Crystallinity in 6 days” value ([7]; suspending in acetone for 6 days, room temperature) was “Form II”. For the same compound, the solubility thermodynamic (physchem [8]) was 0.23 µg/mL (≈ 0.432 µM) and the solubility (physchem [9]) was < 1000 µg/mL.
